Activity calls are given as the source filed them. Rule as the data show it, for most assays here: actives have a measured EC50 and inactives only a lower limit.
What was measured:
INS1 = experiment: beta cell apoptosis inhibitors, cytokine rescue, dose response, luminescence, retest (AID 449756); format: functional, cell-based; details: Rattus norvegicus;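 also: cell death triggered by IL-1 beta plus TNF-alpha plus IFN-gamma mixture; protective hits raise ATP signal compared with cytokine alone wells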
[1] = inhibitors of intracellular T. cruzi replication, confirmation, NIH3T3 host cells, beta-gal luminescence (AID 2044); format: functional, cell-based;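 also: intracellular parasites grown in NIH/3T3 mouse fibroblasts as host cells; luminescent beta-galactosidase reporter signal from transgenic T. cruzi replicating inside host cells; inhibitors lower the luminescence signal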
[2] = cytotoxicity toward NIH3T3 fibroblasts, dose response, counter-screen, cell-based, ATP luminescence, mouse fibroblasts (AID 2010); format: functional;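 also: cells exposed to compound for about 90 hours before reading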
Cytochrome P450 2C9 = Cytochrome P450 2C9 (Homo sapiens, UniProt P11712)
[3] = molecular target: T1, Heat shock factor protein 1 (Mus musculus, UniProt P38532); experiment: inhibition of MG132-induced HSE-luciferase signal, confirmation, cell-based, NIH3T3, luminescence, dose retest (AID 2382); format: functional;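 also: NIH3T3 fibroblasts with HSF1-driven luciferase reporter stressed by proteasome inhibitor MG132; luminescence from HSF1-driven luciferase expression after 8 hours of MG132 stress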
T1 sequence (P38532 whole entry): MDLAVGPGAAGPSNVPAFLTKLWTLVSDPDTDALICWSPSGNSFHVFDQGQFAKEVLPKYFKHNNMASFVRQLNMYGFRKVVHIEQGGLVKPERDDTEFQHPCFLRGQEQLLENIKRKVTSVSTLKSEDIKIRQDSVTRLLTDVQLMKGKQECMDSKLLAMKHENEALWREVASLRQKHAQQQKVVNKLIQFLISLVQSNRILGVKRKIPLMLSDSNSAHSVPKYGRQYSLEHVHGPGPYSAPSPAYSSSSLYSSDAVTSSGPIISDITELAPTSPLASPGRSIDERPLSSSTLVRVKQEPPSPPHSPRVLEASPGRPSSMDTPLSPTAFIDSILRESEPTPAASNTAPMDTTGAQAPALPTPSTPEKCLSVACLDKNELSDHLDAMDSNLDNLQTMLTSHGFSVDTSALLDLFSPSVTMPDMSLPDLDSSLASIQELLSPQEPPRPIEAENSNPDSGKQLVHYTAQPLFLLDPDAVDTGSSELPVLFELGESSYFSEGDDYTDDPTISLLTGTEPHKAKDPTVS

[4] = molecular target: T2, Rac GTPase-activating protein 1 (Homo sapiens, UniProt Q9H0H5); experiment: MgcRacGAP GTPase-activating activity inhibitors, confirmation, biochemical, ADP Hunter fluorescence, primary and confirmatory (AID 624330); format: functional
T2 sequence (Q9H0H5 whole entry): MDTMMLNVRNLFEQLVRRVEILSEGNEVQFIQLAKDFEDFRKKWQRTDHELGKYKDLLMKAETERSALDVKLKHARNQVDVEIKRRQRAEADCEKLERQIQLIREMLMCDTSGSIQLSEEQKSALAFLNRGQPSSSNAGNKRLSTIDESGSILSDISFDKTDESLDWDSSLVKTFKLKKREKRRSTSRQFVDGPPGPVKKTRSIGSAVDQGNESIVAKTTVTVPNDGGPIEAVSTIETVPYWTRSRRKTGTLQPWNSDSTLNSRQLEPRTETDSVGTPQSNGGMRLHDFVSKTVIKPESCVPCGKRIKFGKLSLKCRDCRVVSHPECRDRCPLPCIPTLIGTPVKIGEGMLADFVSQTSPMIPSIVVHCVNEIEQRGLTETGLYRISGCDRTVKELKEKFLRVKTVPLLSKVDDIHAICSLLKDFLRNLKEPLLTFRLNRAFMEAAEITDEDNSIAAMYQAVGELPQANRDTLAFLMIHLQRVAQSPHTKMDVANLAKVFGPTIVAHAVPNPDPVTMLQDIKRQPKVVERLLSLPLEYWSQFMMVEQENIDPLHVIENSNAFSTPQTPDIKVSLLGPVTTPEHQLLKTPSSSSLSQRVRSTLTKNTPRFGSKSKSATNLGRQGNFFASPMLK

[5] = HEp-2 cell cytotoxicity, dose response, cytotoxicity control for RSV inhibitor project, HTS (AID 2410); format: functional; details: human respiratory syncytial virus
[6] = tested on: Streptococcus sp. 'group A'; experiment: growth inhibition of control SK(-) GAS strain, dose response, counter-screen for streptokinase expression inhibitor project, luminescence, kanamycin, BacTiterGlo, confirmation (AID 1900); format: functional, organism-based
Streptococcus = experiment: Group A Streptococcus viability loss, dose response, counter-screen for streptokinase expression inhibitor project, luminescence, BacTiterGlo (AID 1915); format: functional, organism-based;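 also: potency for reduction of bacterial viability or growth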

Cytochrome P450 2C9, sequence (P11712 whole entry): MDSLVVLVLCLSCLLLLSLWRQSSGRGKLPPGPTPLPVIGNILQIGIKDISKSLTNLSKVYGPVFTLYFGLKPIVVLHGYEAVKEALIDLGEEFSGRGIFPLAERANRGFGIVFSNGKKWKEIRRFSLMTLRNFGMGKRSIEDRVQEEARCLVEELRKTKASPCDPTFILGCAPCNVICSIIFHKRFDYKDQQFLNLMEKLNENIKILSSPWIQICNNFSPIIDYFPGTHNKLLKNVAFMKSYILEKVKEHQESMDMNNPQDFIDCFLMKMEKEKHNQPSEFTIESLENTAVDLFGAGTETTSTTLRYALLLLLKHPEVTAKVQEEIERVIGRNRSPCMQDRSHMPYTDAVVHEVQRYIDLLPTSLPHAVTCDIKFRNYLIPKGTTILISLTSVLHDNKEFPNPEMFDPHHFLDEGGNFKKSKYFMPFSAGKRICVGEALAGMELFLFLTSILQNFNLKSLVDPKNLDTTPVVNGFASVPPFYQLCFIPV

Structure (SMILES): O=C(NCC#CCSc1nnc(-c2cccc3ccccc23)o1)c1cccs1
- AC50 (INS1): 2.51 µM (active)

Structure (SMILES): CC#CC[N+](C)(C)CCCCCCCC
- AC50 (INS1): 28.7 µM (active)

Structure (SMILES): O=[N+]([O-])c1cc(-c2nnc(Nc3ccccc3)c3ccccc23)ccc1N1CCOCC1
- EC50 [1]: 1.28 µM (active)
- EC50 [2]: > 30 µM (not active)

Structure (SMILES): Cc1ccc(/C=C/C(=O)NC(=S)Nc2ccccc2C(=O)NC2CCCCC2)cc1
- AC50 (Cytochrome P450 2C9): 7.08 µM (inconclusive)

Structure (SMILES): CSCCC(NS(=O)(=O)c1cccs1)C(=O)NCc1ccccc1 (stereo not given)
- EC50 [3]: > 195 µM (not active)

Structure (SMILES): COc1ccc(NCc2ccsc2)cc1
- IC50 [4]: 29.6 µM (active)

Structure (SMILES): COc1ccc(CNC(C)CCc2ccccc2)cc1 (stereo not given)
- EC50 [3]: > 195 µM (not active)

Structure (SMILES): Cc1ccc(C)c(NS(=O)(=O)c2cc(C(=O)N3CCc4ccccc4C3)ccc2Cl)c1
- EC50 [1]: 2.06 µM (active)
- EC50 [2]: > 60 µM (not active)

Structure (SMILES): c1csc(CNc2nc(-c3ccc4c(c3)OCO4)nc3ccccc23)c1
- AC50 (Cytochrome P450 2C9): 1.58 µM (inconclusive)

Structure (SMILES): N#CCCn1c(=O)c(-c2ccccc2)nc2cnc(Oc3cccc(Cl)c3)nc21
- AC50 (Cytochrome P450 2C9): 7.94 µM (inconclusive)

Structure (SMILES): CCOc1ccc(CNC(=O)CCS(=O)(=O)c2ccc3c(c2)oc(=O)n3C)cc1
- EC50 [3]: > 195 µM (not active)

Structure (SMILES): Cc1ccc(CNc2ccc(N3CCOCC3)cc2)s1
- IC50 [4]: 20.1 µM (active)

Structure (SMILES): Cc1ccc(CN2CCN(Cc3cc4ccccc4o3)CC2CCO)cc1 (stereo not given)
- EC50 [3]: > 195 µM (not active)

Structure (SMILES): CCN(CC)CCNCC(=O)Nc1ccc(Oc2ccccc2)cc1
- IC50 [4]: 119 µM (active)

Structure (SMILES): COc1ccc(C(=O)CSc2nc(C)cc(O)n2)cc1C
- EC50 [3]: > 195 µM (not active)

Structure (SMILES): c1ccc(COc2ccc(OCCN3CCCC3)cc2)cc1
- EC50 [1]: 1.18 µM (active)
- EC50 [2]: 13.1 µM (active)

Structure (SMILES): COc1cc(CNc2ccc(N3CCOCC3)cc2)cc(Br)c1OC
- IC50 [4]: 15.4 µM (active)

Structure (SMILES): Cc1nc2ccc(NC(=O)N3CCSCC3)cc2s1
- EC50 [3]: > 195 µM (not active)

Structure (SMILES): NCCSCc1ccccc1Cl
- AC50 (Cytochrome P450 2C9): 3.98 µM (inconclusive)

Structure (SMILES): CCN(CC)c1ccc(NC(=O)CSC(=O)c2ccccc2)cc1
- IC50 [4]: 83.9 µM (active)

Structure (SMILES): Cc1cc(/C=C2\C(=N)N3N=C(C(C)C)SC3=NC2=O)c(C)n1Cc1ccccc1
- CC50 [5]: 21.5 µM (active)

Structure (SMILES): Cc1cccc(N(C(=O)c2ccco2)C(C(=O)NC2CCCC2)c2cccnc2)c1C (stereo not given)
- EC50 [3]: > 195 µM (not active)

Structure (SMILES): Cc1nn2c(SCC(=O)c3cccs3)cc(C(C)(C)C)nc2c1-c1ccccc1
- EC50 [1]: 2.66 µM (active)
- EC50 [2]: > 60 µM (not active)

Structure (SMILES): Cc1cc2cc(CCNC(=O)C(=O)c3c[nH]c4ccccc34)c(O)nc2cc1C
- EC50 [3]: 21.1 µM (active)

Structure (SMILES): Cc1ccccc1C1c2[nH]c3ccccc3c2CCN1Cc1cccn1-c1ncccn1 (stereo not given)
- EC50 [1]: 1.26 µM (active)
- EC50 [2]: > 60 µM (not active)

Structure (SMILES): COc1ccc(Oc2ncc3nc(-c4ccc(Cl)cc4)c(=O)n(CCC#N)c3n2)cc1
- AC50 (Cytochrome P450 2C9): 7.94 µM (inconclusive)

Structure (SMILES): CC(C)CC(C(=O)Nc1cccc(O)c1)N1C(=O)c2ccccc2C1=O (stereo not given)
- EC50 [3]: > 195 µM (not active)

Structure (SMILES): C=CCN(CC=C)C(=S)NC(=O)c1ccc(OC)c(Br)c1
- AC50 (Cytochrome P450 2C9): 15.8 µM (inconclusive)

Structure (SMILES): O=S(=O)(N1CCCCC1)N1CCN(CC(O)COc2ccc3cc(Br)ccc3c2)CC1 (stereo not given)
- EC50 [1]: 2.31 µM (active)
- EC50 [2]: > 60 µM (not active)

Structure (SMILES): O=C(NNC(=O)c1ccc2c(c1)C(=O)N(C1CCCCC1)C2=O)c1cccnc1
- AC50 (Cytochrome P450 2C9): 15.8 µM (inconclusive)

Structure (SMILES): Cc1nc2c(ccc3nc(NC(=O)C(c4ccccc4)c4ccccc4)sc32)s1
- CC50 [5]: 5.99 µM (active)

Structure (SMILES): CCOc1ccc(-c2cn(S(=O)(=O)c3cccc4nsnc34)nc2N)cc1
- CC50 [5]: > 50 µM (active)

Structure (SMILES): COC(=O)c1ccc(N=NNc2ccc(C(=O)OC)cc2)cc1
- EC50 [3]: > 195 µM (not active)

Structure (SMILES): COc1ccc(CN2CCN(C(C)C(=O)N(C)Cc3cccc(F)c3)CC2)cc1OC (stereo not given)
- IC50 [4]: 76.2 µM (active)

Structure (SMILES): COc1ccc(NC(=O)C(C)N2CCN(C)CC2)cc1 (stereo not given)
- IC50 [4]: 78.1 µM (active)

Structure (SMILES): O=C(O)CSc1cc(-c2ccccc2)nc2ccccc12
- AC50 (Cytochrome P450 2C9): 3.16 µM (inconclusive)

Structure (SMILES): O=C(CN1CCCCCC1)NCC1CCCO1 (stereo not given)
- IC50 [4]: 117 µM (active)

Structure (SMILES): COc1ccc(OCCOCCN2CCc3ccccc3C2)cc1
- EC50 [1]: 0.141 µM (active)
- EC50 [2]: > 60 µM (not active)

Structure (SMILES): O=C(COc1ccccc1)Nc1ccc(N2CCN(C(=O)c3ccco3)CC2)cc1
- CC50 [5]: 23.6 µM (active)

Structure (SMILES): COC(=O)c1cc(COc2ccc3oc(C)c(C(=O)OC(C)C)c3c2)c(C)o1
- EC50 [3]: > 195 µM (not active)

Structure (SMILES): N#C/C(=C\c1c(Cl)cccc1Cl)c1nn(-c2ccccc2)c(-n2cccc2)c1C#N
- EC50 [1]: 1.29 µM (active)
- EC50 [2]: > 60 µM (not active)

Structure (SMILES): O=S(=O)(N1CCCCC1)n1nnc2ccccc21
- EC50 [3]: > 195 µM (not active)

Structure (SMILES): CCOC(=O)c1cn2nc(-c3ccc(OC)cc3)cc2nc1C1CCN(C(=O)OC(C)(C)C)CC1
- EC50 [1]: 1.55 µM (active)
- EC50 [2]: > 60 µM (not active)

Structure (SMILES): Cc1cnc(C(=O)Nc2cccc3cccnc23)cn1
- EC50 [1]: 2.22 µM (active)

Structure (SMILES): CCn1cc(C(=O)NCCCN2CC(C)CC(C)C2)c(=O)c2cc(S(=O)(=O)N(C)C)ccc21 (stereo not given)
- EC50 [3]: > 195 µM (not active)

Structure (SMILES): c1ccc(Cn2nnnc2C(c2cccnc2)N2CCN(c3ccccc3)CC2)cc1 (stereo not given)
- EC50 [1]: 0.534 µM (active)
- EC50 [2]: > 60 µM (not active)

Structure (SMILES): CC1CC(C)CN(C2CCN(Cc3cccnc3)CC2)C1 (stereo not given)
- IC50 [4]: 49.6 µM (active)

Structure (SMILES): CC(=O)OC1(c2ccccc2)CCN(C)C2CCCCC21 (stereo not given)
- EC50 [3]: > 195 µM (not active)

Structure (SMILES): CCC(=O)c1ccccc1OCCN1CCN(CC)CC1
- IC50 [4]: 88.2 µM (active)

Structure (SMILES): COCCSc1ccccc1C(=O)N1CCCC(C)C1 (stereo not given)
- EC50 [6]: > 150 µM (not active)
- EC50 (Streptococcus): > 150 µM (not active)

Structure (SMILES): CCOC(=O)c1[nH]c2cc(OC)c(OC)cc2c1N
- IC50 [4]: 35 µM (active)

Structure (SMILES): CC(C)CCNc1nc(N2CCCC2)c2c(c1C#N)CCN(C)C2
- EC50 [1]: 0.1 µM (active)
- EC50 [2]: > 60 µM (not active)

Structure (SMILES): COc1ccc(C2=NN(C(=O)c3cccs3)C(c3ccccc3O)C2)cc1 (stereo not given)
- EC50 [1]: 3.01 µM (active)
- EC50 [2]: > 60 µM (not active)

Structure (SMILES): Cc1cc(C)c(OCCCCN(C)C)c(Br)c1
- EC50 [1]: 0.46 µM (active)
- EC50 [2]: > 60 µM (inconclusive)

Structure (SMILES): O=[N+]([O-])c1ccc2c(c1)Cc1cc(O)ccc1-2
- IC50 [4]: 16.7 µM (active)

Structure (SMILES): O=C(CSc1nnc(C2CC2)n1C1CC1)N1CCN(c2ccc(O)cc2)CC1
- IC50 [4]: 30.2 µM (active)

Structure (SMILES): CCOc1ccccc1/N=N/c1c(C)[nH]n(C(N)=S)c1=O
- CC50 [5]: 33.1 µM (active)

Structure (SMILES): CCN(CC)S(=O)(=O)c1cccc(C(=O)N/N=C/c2ccc(OC)c(O)c2)c1
- IC50 [4]: 76.7 µM (active)

Structure (SMILES): C/C(=N\OCC(=O)Nn1c(=O)[nH]c2ccccc2c1=O)c1cccs1
- EC50 [3]: > 195 µM (not active)

Structure (SMILES): CCn1nc(C)c(/C=N/NC(=O)c2c[nH]c3ccccc23)c1C
- EC50 [3]: > 195 µM (not active)

Structure (SMILES): O=C1OC2(CCCCC2)OC(O)=C1/C=N/c1nccs1
- EC50 [3]: > 195 µM (not active)
